Each block holds one molecule with its values, some of them ahead of it.
Experiments:
[1] = test system: Chick limb bud cells; assay: Limb bud cell high density culture, cartilage matrix by Alcian blue; type: cell-based; details: RA 1 μM or AGN194310 100 nM for 6 days
Method: The limb bud cells were inoculated at a high density and treated with retinoids. Cartilage matrix accumulation was visualized by Alcian blue staining. […] Similar testing was described in Hoffman et al., J. Cell. Biol. 174:101-113, 2006. Chick limb bud cells were isolated from […], seeded at the density of 4×10^5 cells in 10 μL and maintained in 1% FBS containing high glucose DMEM for 3 days. Cultures then were treated with 0.1% EtOH (vehicle), retinoic acid (RA) 1 μM or AGN194310 100 nM for 6 days, fixed, and stained with Alcian Blue, pH 1.0.

[2] = Nanoparticle characterisation (size, drug loading); details: in PLA-based NP
Method: The drug loading of NP was determined spectrophotometrically against suitable calibration curves following two-step drug extraction in sec-butanol. Particle size measurements were performed by dynamic light scattering using a 90 Plus Particle Size Analyzer. An external sink method was applied for measuring drug release kinetics under sink conditions as follows: NP were diluted in PBS/2% bovine serum albumin and incubated with a water-immiscible acceptor medium (1-octanol and n-heptane, 1:1 v/v), and the released drug assayed spectrophotometrically in the acceptor medium samples at predetermined time-points.

[3] = target: T1, RARγ (Homo sapiens, UniProt P13631); assay: Potency (ED50/EC50) of RARγ agonists
T1 sequence (P13631 1-454): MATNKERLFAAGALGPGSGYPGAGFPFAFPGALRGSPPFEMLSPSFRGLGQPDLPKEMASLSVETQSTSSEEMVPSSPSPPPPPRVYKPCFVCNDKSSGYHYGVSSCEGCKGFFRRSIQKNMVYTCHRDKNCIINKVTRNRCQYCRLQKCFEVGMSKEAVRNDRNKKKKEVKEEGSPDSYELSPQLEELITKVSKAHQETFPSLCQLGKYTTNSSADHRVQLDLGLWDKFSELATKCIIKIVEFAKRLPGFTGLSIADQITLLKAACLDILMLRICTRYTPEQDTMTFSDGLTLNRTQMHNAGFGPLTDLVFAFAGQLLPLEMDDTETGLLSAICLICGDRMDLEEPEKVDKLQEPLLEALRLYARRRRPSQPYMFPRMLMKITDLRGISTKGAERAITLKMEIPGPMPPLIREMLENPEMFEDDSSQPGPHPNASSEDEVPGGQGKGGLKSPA

[4] = test system: heterotopic ossification (HO); assay: Heterotopic ossification in FOP model mice, oral palovarotene; type: in vivo, mouse; details: oral administration
Excerpt: As discussed above, control and adjustment of specific long bone growth dysregulation requires achieving a highly localized and sustained therapeutic effect. Today, surgical resection combined with systemically administered anti-inflammatory drugs is the primary treatment modality for acquired HO. Treatment options for FOP are further limited. Because the surgical procedure itself can induce additional HO formation, systemic drug therapy aimed at reducing HO progression and related symptoms is the sole choice. […] However, despite the significant reduction in HO with this treatment regimen, systemic administration of the RARγ agonist fails to completely prevent the disease. Enhancing efficacy by increasing the systemic drug dosage may not be possible without causing strong and even toxic off-target effects. Thus, the inventive methods of treatment here increase the activity at the target site without inducing unwanted systemic effects using biodegradable nanoparticle (NP) formulations impregnated with a potent RARγ agonist capable of targeting specific areas of bone.
Acvr1cR206H/+; R26-rtTA; tetO-cre mice, treated with doxycycline to induce global expression of Acvr1cR206H/+, were subjected to hindlimb muscle injury with cardiotoxin and examined by μCT imaging 14 days after treatment with palovarotene (right) or vehicle (left). […]

[5] = Hydrophobicity of acetaminophen-capped prodrug derivative versus parent; type: physicochemical; details: acetaminophen-capped derivative vs parent retinoid
Excerpt: In order to produce an in situ activatable, reversibly hydrophobized prodrug derivatives of a RARγ agonist, a pro-drug can be delivered in a nanoparticle formulation. […] However, the ionizable carboxylic group promotes the partitioning of the compound from the particle to the surrounding aqueous medium. […] The compound would be activatable upon release can increase the stability of the particle-cargo association and help achieve a more lasting and highly localized therapeutic effect. Such constructs are in essence mutual prodrugs or co-drugs, as they regenerate in one step the retinoid compound and acetaminophen, a biologically active “helper” agent, which can play an important supporting role in therapy.

[6] = test system: heterotopic ossification (HO) in FOP patients; details: systemic palovarotene; top-line results of ongoing Phase II trial; cited from earlier work

Compound: CCc1ccc(C2=CC(C)(C)Sc3ccc(C#Cc4ccc(C(=O)O)cc4)cc32)cc1 [AGN194310]
cartilage matrix production / cartilage forming region (Alcian blue) [1]: enhanced

average particle size [2]: 565 nm | drug loading [2]: 1 mg/mL | entrapment yield [2]: 67% | polydispersity index [2]: < 0.1
Compound: CC(=O)Nc1ccc(OC(=O)c2ccc3cc(C4(c5ccc6c(c5)C(C)(C)CCC6(C)C)SCCS4)ccc3c2)cc1 [MM 11253 prodrug]

potency (EC50) compared with NRX204647 [3]: inferior to that of NRX204647 | more hydrophobic derivative if modified with acetaminophen [5]: 15 fold
Compound: CC1(C)CCC(C)(C)c2cc(Cn3cccn3)c(/C=C/c3ccc(C(=O)O)cc3)cc21 [palovarotene]
HO in FOP model mice [4]: effectively reduces HO | reduction of HO in patients [6]: up to 70%
